In paper PMC12751000, “Dual Agonist/Antagonist Modulation of α9-Containing Nicotinic Acetylcholine Receptors by 2‑Ammoniumethyl Ethers of Stilbenol and Stilbenol Analogues” (Journal of Medicinal Chemistry, 2025):
Entries after “also recorded” stand apart in the source; their conditions may differ. Read-outs that look alike come from different tables or passages of the source.

Key:
Assay type in all cases: cell-based
[1] = system: BzATP-induced release of IL-1β from human monocytic THP-1 cells; experiment: BzATP-induced IL-1β release by LPS-primed human monocytic THP-1 cells (ELISA); settings: for Effect on BzATP-induced IL-1β release in the absence of ACh: LPS-primed THP-1
Protocol: THP-1 cells were primed with lipopolysaccharide (LPS; 1 μg/mL, 5 h) followed by stimulation with the P2X7 receptor agonist BzATP (2′/3′-O-(4-benzoylbenzoyl)-adenosine-5′-triphosphate, tri(triethylammonium) salt) for 40 min to induce IL-1β release, which was quantified by ELISA.
Experiments on human monocytic THP-1 cells (German Collection of Microorganisms and Cell Cultures, Braunschweig, Germany, Cat# ACC16) were performed as described before. […] The supernatants were collected and stored for later IL-1β measurements using the Human IL-1β/IL-1F2 DuoSet ELISA from R&D Systems (Minneapolis MN, USA, Cat# DY201). Cell viability was assessed by measuring lactate dehydrogenase (LDH) activity in the supernatants using the CytoTox 96 Non-Radioactive Cytotoxicity Assay (Promega, Madison WI, USA; Cat# G1780). LDH activities were expressed as a percentage of total LDH activity from lysed control cells. Data on the BzATP-induced IL-1β release and LDH activity were analyzed using SPSS (Version 29.0.2.0, IBM, Armonk, NY, United States) and visualized using Inkscape version 0.48.5 r10040 (Free and Open Source Software licensed under the GPL). The data were analyzed first by the Friedman test.

hα9α10 nAChRs [2] = target: T1, hα9α10 nAChRs (Homo sapiens, UniProt Q9GZZ6+Q9UGM1); experiment: Two-electrode voltage clamp, inhibition of ACh-evoked currents at hα9α10 nAChRs expressed in Xenopus laevis oocytes; settings: for IC50 / n H (Hill coefficient of inhibition): 6 μM ACh; for IC50: 5 min preincubation with compound, holding potential −80 mV
T1 construct: host or cells: Xenopus laevis oocytes, cRNA-injected (α9:α10 cRNA ratio 1:1)
T1 sequence (Q9UGM1 26-479 limits assumed): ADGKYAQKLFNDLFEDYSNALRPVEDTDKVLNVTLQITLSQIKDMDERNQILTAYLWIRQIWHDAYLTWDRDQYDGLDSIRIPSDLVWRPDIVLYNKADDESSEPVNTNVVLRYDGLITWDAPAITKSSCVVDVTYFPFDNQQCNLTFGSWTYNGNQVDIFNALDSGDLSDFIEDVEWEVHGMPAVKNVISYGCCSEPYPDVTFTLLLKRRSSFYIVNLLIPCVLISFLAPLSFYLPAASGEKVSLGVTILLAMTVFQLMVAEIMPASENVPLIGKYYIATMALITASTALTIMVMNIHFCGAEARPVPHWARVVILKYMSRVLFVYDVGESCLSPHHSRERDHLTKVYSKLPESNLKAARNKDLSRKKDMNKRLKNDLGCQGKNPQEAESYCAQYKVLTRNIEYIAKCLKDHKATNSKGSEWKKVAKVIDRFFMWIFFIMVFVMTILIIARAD
T1 sequence (Q9GZZ6 25-450): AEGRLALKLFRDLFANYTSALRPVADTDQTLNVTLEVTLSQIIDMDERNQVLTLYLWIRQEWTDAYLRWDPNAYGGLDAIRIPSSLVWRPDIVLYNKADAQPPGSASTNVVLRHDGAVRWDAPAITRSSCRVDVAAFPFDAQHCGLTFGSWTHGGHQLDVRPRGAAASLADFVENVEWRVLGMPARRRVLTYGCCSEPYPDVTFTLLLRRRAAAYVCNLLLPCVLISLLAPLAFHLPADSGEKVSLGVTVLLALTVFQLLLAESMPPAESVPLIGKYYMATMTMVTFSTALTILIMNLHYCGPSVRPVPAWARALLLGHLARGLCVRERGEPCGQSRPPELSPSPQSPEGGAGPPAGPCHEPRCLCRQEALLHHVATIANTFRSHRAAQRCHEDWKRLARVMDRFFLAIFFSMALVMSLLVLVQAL
Text: (§1) The protocols were approved by the Animal Ethics Committees of the Victor Chang Cardiac Research Institute, Sydney, and the University of Wollongong (project number AE 20/17). Human α9 and α10 nAChR clones were obtained from OriGene (Rockville, MD, USA) and subcloned into the pT7TS vector. The human α7 nAChR clone, in the plasmid pMXT, was kindly provided by J. Lindstrom (University of Pennsylvania, USA). Constructs of human nAChR subunits were linearized and used for in vitro cRNA transcription with the SP6/T7 mMessage mMachine transcription kit (AMBION, Forster City, CA, USA).
(§2) The cRNA concentration was verified spectrophotometrically and by gel electrophoresis.
(§3) Electrophysiological recordings were conducted 2–5 days after cRNA injection using a HiClamp automated two-electrode voltage-clamp screening system (MultiChannel Systems GmbH, Reutlingen, Germany) with a holding potential of –80 mV. To prevent the activation of endogenous Ca^2+-activated chloride channels due to the Ca^2+ permeability of α9-containing nAChRs, oocytes were preincubated with 100 μM BAPTA-AM for approximately 3 h.
For concentration–response experiments assessing modulation of ACh-evoked responses, oocytes were initially superfused with ND96 or ND115 solution, depending on the receptor subtype. […] After ACh application, a 3 min washout was performed. Oocytes were then incubated with the test compound for 5 min, followed by coapplication of the compound and ACh in a continuously flowing bath solution. All compounds were prepared in ND96 or ND115 with 0.1% bovine serum albumin (BSA).

hα9α10 nAChRs [3] = target: T1, hα9α10 nAChRs; experiment: Two-electrode voltage clamp, compound-evoked currents (compound applied alone) at hα9α10 nAChRs in Xenopus laevis oocytes
Text: as §1, §2, §3
Concentration–response experiments assessing compound-evoked currents were performed by initially superfusing α9-containing nAChRs oocytes with ND115 solution. Test compounds were then applied at concentrations ranging from 300 pM to 30 μM, followed by a 3 min washout period.

hα9 nAChRs [4] = target: T2, hα9 nAChRs (Homo sapiens, UniProt Q9UGM1); experiment: Two-electrode voltage clamp, inhibition of ACh-evoked currents at hα9 nAChRs in Xenopus laevis oocytes
T2 construct: host or cells: Xenopus laevis oocytes, cRNA-injected
T2 sequence (Q9UGM1 26-479 limits assumed): as the sequence (Q9UGM1 26-479 limits assumed) above

hα9 nAChRs [5] = target: T2, hα9 nAChRs; experiment: Two-electrode voltage clamp, compound-evoked currents at hα9 nAChRs in Xenopus laevis oocytes
hα7 nAChRs [6] = target: T3, hα7 nAChRs (Homo sapiens, UniProt P36544); experiment: Two-electrode voltage clamp, inhibition of ACh-evoked currents at hα7 nAChRs in Xenopus laevis oocytes
T3 construct: host or cells: Xenopus laevis oocytes, cRNA-injected (10 ng)
T3 sequence (P36544 23-502): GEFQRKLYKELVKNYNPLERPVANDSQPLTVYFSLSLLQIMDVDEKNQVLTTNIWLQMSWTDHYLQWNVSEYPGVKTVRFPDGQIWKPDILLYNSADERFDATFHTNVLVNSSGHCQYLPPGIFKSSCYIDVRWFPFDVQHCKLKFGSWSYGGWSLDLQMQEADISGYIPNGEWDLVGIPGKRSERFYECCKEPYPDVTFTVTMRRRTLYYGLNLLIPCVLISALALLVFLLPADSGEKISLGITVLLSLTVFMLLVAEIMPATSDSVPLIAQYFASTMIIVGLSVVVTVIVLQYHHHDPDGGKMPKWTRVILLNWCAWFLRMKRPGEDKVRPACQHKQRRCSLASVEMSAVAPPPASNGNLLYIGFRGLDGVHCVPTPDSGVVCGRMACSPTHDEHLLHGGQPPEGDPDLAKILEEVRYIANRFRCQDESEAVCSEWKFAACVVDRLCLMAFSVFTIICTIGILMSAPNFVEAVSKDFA

hα7 nAChRs [7] = target: T3, hα7 nAChRs; experiment: Two-electrode voltage clamp, compound-evoked currents at hα7 nAChRs in Xenopus laevis oocytes; settings: compound applied alone
Protocol: Additionally, five compounds of the series were tested on the homomeric hα7 and hα9 nAChRs.
as §1, §2, §3

[8] = compound applied alone (300 pM to 30 μM), normalized to response at highest concentration, read-out: EC50
[9] = compound applied alone, read-out: EC50

Compound	IC50 (hα9α10 nAChRs [2])	EC50 (hα9α10 nAChRs [3]; [8])	IC50 ratio to Cpd 1 (hα9α10 nAChRs [2])	n H (Hill coefficient of inhibition) (hα9α10 nAChRs [2])	EC50 ratio to Cpd 1 (hα9α10 nAChRs [3])	n H (Hill coefficient of activation) (hα9α10 nAChRs [3]; compound applied alone)	also measured
CC(=O)OCC[N+](C)(C)C [ACh, acetylcholine]	–	–	–	–	–	–	Effect on BzATP-induced IL-1β release ([1]; ACh 10 μM applied shortly before BzATP): significantly reduced
CC[N+](CC)(CC)CCOc1ccc(CCc2ccccc2)cc1 [Compound 4]	189 nM	1140 nM	–	–	–	–	–
C[N+](C)(CCOc1ccc(/C=C/c2ccccc2)cc1)C1CCOCC1.[I-] [Compound 6, (E)-N,N-Dimethyl-N-(2-(4-styrylphenoxy)ethyl)tetrahydro-2H-pyran-4-aminium Iodide]	55 nM	185 nM	0.9	2.1	0.5	2.4	–
C[N+](C)(CCOc1ccc(/C=C/c2ccccc2)cc1)C1CCCC1.[I-] [Compound 7, (E)-N,N-Dimethyl-N-(2-(4-styrylphenoxy)ethyl)cyclopentanaminium Iodide]	22.1 nM	175 nM	0.4	1.7	0.5	1.6	–
C[N+](C)(CCOc1ccc(/C=C/c2ccccc2)cc1)C1CCCCCC1.[I-] [Compound 8, (E)-N,N-Dimethyl-N-(2-(4-styrylphenoxy)ethyl)cycloheptanaminium Iodide]	124 nM	300 nM	2.1	2.6	0.8	1.6	–
C[N+](C)(CCOc1ccc(/C=C/c2ccccc2)cc1)c1ccccc1.[I-] [Compound 9, (E)-N,N-Dimethyl-N-(2-(4-styrylphenoxy)ethyl)benzenaminium Iodide]	95.1 nM	474 nM	1.6	2.1	1.2	3.3	–
C[N+](C)(CCOc1ccc(/C=C/c2ccccc2)cc1)Cc1ccccc1.[Br-] [Compound 10, (E)-N-Benzyl-N,N-dimethyl-2-(4-styrylphenoxy)ethanaminium Bromide]	124 nM	448 nM	2.1	2.1	1.2	2.4	–
C[N+](CCOc1ccc(/C=C/c2ccccc2)cc1)(C1CCCC1)C1CCCC1.[I-] [Compound 12, (E)-N-Cyclopentyl-N-methyl-N-(2-(4-styrylphenoxy)ethyl)cyclopentanaminium Iodide]	378 nM	1710 nM	6.3	3.0	4.4	1.2	–
C[N+](CCOc1ccc(/C=C/c2ccccc2)cc1)(Cc1ccccc1)Cc1ccccc1 [Compound 13]	1110 nM	7040 nM	–	–	–	–	EC50 (hα9α10 nAChRs [3]; [9]): > 5000 nM
C[N+](C)(CCCOc1ccc(/C=C/c2ccccc2)cc1)C1CCCCC1.[I-] [Compound 14, (E)-N,N-Dimethyl-N-(3-(4-styrylphenoxy)propyl)cyclohexanaminium Iodide]	98.9 nM	511 nM	1.6	2.1	1.3	3.0	–
C[N+](C)(CCCCOc1ccc(/C=C/c2ccccc2)cc1)C1CCCCC1.[I-] [Compound 15, (E)-N,N-Dimethyl-N-(4-(4-styrylphenoxy)butyl)cyclohexanaminium Iodide]	124 nM	1470 nM	2.1	2.0	3.8	1.4	–
C[N+](C)(CCOc1ccc(CCc2ccccc2)cc1)C1CCCCC1.[I-] [Compound 16, N,N-Dimethyl-N-(2-(4-phenethylphenoxy)ethyl)cyclohexanaminium Iodide]	168 nM	482 nM	2.8	3.8	1.3	3.2	IC50 ratio to Cpd 1 (hα9 nAChRs [4]): 0.7; n H (Hill coefficient of inhibition) (hα9 nAChRs [4]; 50 μM ACh): 1.5; IC50 (hα9 nAChRs [4]; 50 μM ACh, 5 min preincubation): 133 nM; EC50 ratio to Cpd 1 (hα9 nAChRs [5]): 1.1; n H (Hill coefficient of activation) (hα9 nAChRs [5]; compound applied alone): 2.4; EC50 (hα9 nAChRs [5]; [9]): 983 nM; IC50 ratio to Cpd 1 (hα7 nAChRs [6]): 1.0; n H (Hill coefficient of inhibition) (hα7 nAChRs [6]; 100 μM ACh): 1.8; IC50 (hα7 nAChRs [6]; 100 μM ACh, 5 min preincubation): 434 nM; EC50 (hα7 nAChRs [7]): no agonist activity; Effect on the inhibitory effect of ACh on BzATP-induced IL-1β release ([1]; compound 100 pM + ACh 10 μM, LPS 1 μg/mL 5 h, BzATP 100 μM 40 min): efficiently antagonized the inhibitory effect of ACh; Effect on BzATP-induced IL-1β release in the absence of ACh ([1]; compound 100 pM): minor reduction; Effect on BzATP-induced IL-1β release in the absence of ACh ([1]; compound 100 nM): effectively and significantly inhibited
CC[N+](CC)(CC)CCOc1ccc(-c2ccccc2)cc1 [Compound 17]	117 nM	479 nM	1.9	1.4	1.2	3.3	–
CC[N+](CC)(CC)CCOc1ccc(C#Cc2ccccc2)cc1 [Compound 18]	89 nM	550 nM	1.5	1.8	1.4	2.2	–
CC[N+](CC)(CC)CCOc1ccc(OCc2ccccc2)cc1 [Compound 19]	207 nM	1020 nM	3.4	1.6	2.6	1.9	–
CC[N+](CC)(CC)CCOc1ccc(COc2ccccc2)cc1 [Compound 20]	139 nM	–	2.3	1.7 (1.6–1.8) [8]	–	–	EC50 (hα9α10 nAChRs [3]; compound applied alone (300 pM to 30 μM), normalized to response at highest concentration): failed to activate; also recorded: failed to evoke currents; also recorded: No activity
